Results taken from patent US10865191B2, “Heterocyclic compounds useful as modulators of TNF alpha” (BRISTOL-MYERS SQUIBB COMPANY, priority 2015, dated 2020).

Target: TNFα (Homo sapiens, UniProt P01375)
Assay: TNF induced HEK-Blue assay (NF-kB-driven secreted alkaline phosphatase reporter)
Type: cell-based
Conditions: TNF induced HEK-Blue assay IC50 value, TNFα 0.5 ng/mL, HEK-Blue-CD40L cells, 18 h
Summary of the method: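 HEK-Blue-CD40L cells (NF-kB-driven SEAP reporter), 20,000/well, added after 30 min pre-incubation of compound (0.004–25 μM final) with TNFα 0.5 ng/mL final at 37 °C; 18 h incubation. SEAP read with QUANTI-Blue at 620 nm; IC50 from 4-parameter logistic fit, normalized to unstimulated and stimulated DMSO controls.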

TNFα, sequence (P01375 77-233 limits assumed): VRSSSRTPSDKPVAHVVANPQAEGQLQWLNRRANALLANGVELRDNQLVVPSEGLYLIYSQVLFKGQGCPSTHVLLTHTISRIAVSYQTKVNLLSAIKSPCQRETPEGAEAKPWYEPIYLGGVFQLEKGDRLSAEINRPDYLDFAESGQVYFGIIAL

| IC50 [µM] | SMILES |
| --- | --- |
| 1 to 10 | CC(Nc1c(Cl)cnc2ccc(-c3cnc(C(C)(C)O)nc3)cc12)c1cccc(F)c1 (racemic) [Example 155, 2-(5-(3-chloro-4-((1-(3-fluorophenyl)ethyl)amino)quinolin-6-yl)pyrimidin-2-yl)propan-2-ol] |
| < 1 | CC(Nc1c(Cl)cnc2cc(F)c(-c3cnc(C(C)(C)O)nc3)cc12)c1ccccc1F (single isomer, unassigned) [Example 241, 2-(5-(3-chloro-7-fluoro-4-((1-(2-fluorophenyl)ethyl)amino)quinolin-6-yl)pyrimidin-2-yl)propan-2-ol] |

Same assay, conditions: TNFα 0.5 ng/mL, HEK-Blue-CD40L cells, 18 h; read-out: TNF induced HEK-Blue assay IC50 value

| IC50 [µM] | SMILES |
| --- | --- |
| 10 to 25 | Cc1nc2ccc(-c3cnc(C(C)(C)O)nc3)cc2c(N[C@H](c2cc(Br)ccc2F)C(F)F)c1Cl [Example 321, (R)-2-(5-(4-((1-(5-bromo-2-fluorophenyl)-2,2-difluoroethyl)amino)-3-chloro-2-methylquinolin-6-yl)pyrimidin-2-yl) propan-2-ol] |
| 1 to 10 | COc1ccc(F)c(CNc2c(Cl)cnc3ccccc23)c1 [Example 517, 3-chloro-N-(2-fluoro-5-methoxybenzyl)quinolin-4-amine] |
| 10 to 25 | CC(=O)NC(CO)c1ccc(-c2ccc3ncc(Cl)c(N[C@H](C)c4ccccc4F)c3c2)cc1 (stereo partly drawn) [Example 482, N-(1-(4-(3-chloro-4-(((R)-1-(2-fluorophenyl)ethyl)amino)quinolin-6-yl)phenyl)-2-hydroxyethyl)acetamide] |
| < 1 | C[C@@H](Nc1c(Cl)cnc2cc(F)c(-c3cnc(C(C)(C)O)nc3)nc12)c1cc(C#N)ccc1F [Example 590, (R)-3-(1-((3-chloro-7-fluoro-6-(2-(2-hydroxypropan-2-yl)pyrimidin-5-yl)-1,5-naphthyridin-4-yl)amino)ethyl)-4-fluorobenzonitrile] |
| < 1 | C[C@@H](Nc1c(Cl)cnc2ccccc12)c1cc(-c2cn[nH]c2)ccc1F [Example 455, (R)-3-chloro-N-(1-(2-fluoro-5-(1H-pyrazol-4-yl)phenyl)ethyl)quinolin-4-amine] |
| < 1 | CC(C)(O)c1ncc(-c2cc3c(N[C@@H](c4cc(C#N)ccc4F)C(F)F)c(Cl)cnc3cc2F)cn1 [Example 381, (S)-3-(1-((3-chloro-7-fluoro-6-(2-(2-hydroxypropan-2-yl)pyrimidin-5-yl)quinolin-4-yl)amino)-2,2-difluoroethyl)-4-fluorobenzonitrile] |
| < 1 | Cc1nc2ccc(-c3cnc(N4CCN(CC(=O)O)CC4)nc3)cc2c(N[C@H](C)c2cc(C#N)ccc2F)c1Cl [Example 377, (R)-2-(4-(5-(3-chloro-4-((1-(5-cyano-2-fluorophenyl)ethyl)amino)-2-methylquinolin-6-yl)pyrimidin-2-yl)piperazin-1-yl)acetic acid] |
| < 1 | C[C@@H](Nc1c(Cl)cnc2cc(F)c(-c3cnc(C(C)(C)O)nc3)cc12)c1cc(C(N)=O)ccc1F [Example 392, (R)-3-(1-((3-chloro-7-fluoro-6-(2-(2-hydroxypropan-2-yl)pyrimidin-5-yl)quinolin-4-yl)amino)ethyl)-4-fluorobenzamide] |
| < 1 | C[C@@H](Nc1c(Cl)cnc2ccccc12)c1cc(-c2cncn2C)ccc1F [Example 524, (R)-3-chloro-N-(1-(2-fluoro-5-(1-methyl-1H-imidazol-5-yl)phenyl)ethyl)quinolin-4-amine] |
| < 1 | CNc1ccncc1-c1ccc(F)c([C@@H](C)Nc2c(Cl)cnc3ccccc23)c1 [Example 523, (R)-3-chloro-N-(1-(2-fluoro-5-(4-(methylamino)pyridin-3-yl)phenyl)ethyl)quinolin-4-amine] |
| 1 to 10 | Cc1nc2ccc(-c3cnc(C(C)(C)O)nc3)cc2c(N[C@H](C)c2cccc(OCC(=O)O)c2)c1Cl [Example 438, (R)-2-(3-(1-((3-chloro-6-(2-(2-hydroxypropan-2-yl)pyrimidin-5-yl)-2-methylquinolin-4-yl)amino)ethyl)phenoxy)acetic acid] |

The next lines start with the compound.

| SMILES | IC50 [µM] |
| --- | --- |
| Cc1ccc(C)c(Nc2c(Cl)c(C(=O)O)nc3ccc(-c4ccc(C#N)nc4)cc23)c1 [Example 31, 3-chloro-6-(6-cyanopyridin-3-yl)-4-((2,5-dimethylphenyl)amino)quinoline-2-carboxylic acid] | 1 to 10 |
| CN(Nc1c(Cl)cnc2ccc(-c3cnc(C(C)(C)O)nc3)cc12)c1ccccc1 [Example 54, 2-(5-(3-chloro-4-(2-methyl-2-phenylhydrazinyl)quinolin-6-yl)pyrimidin-2-yl)propan-2-ol] | < 1 |
| Cc1ccc(C)c(Nc2c(Cl)c(C)nc3ccc(-c4ccc(CN5CCNCC5)cc4)cc23)c1 [Example 7, 3-chloro-N-(2,5-dimethylphenyl)-2-methyl-6-(4-(piperazin-1-ylmethyl)phenyl)quinolin-4-amine] | < 1 |
| Cc1nc2ccc(-c3cnc(C(C)(C)O)nc3)cc2c(NC(C)c2ccccc2F)c1Cl (racemic) [Example 218, 2-(5-(3-chloro-4-((1-(2-fluorophenyl)ethyl)amino)-2-methylquinolin-6-yl)pyrimidin-2-yl)propan-2-ol] | < 1 |
| Cc1ccc(C)c(Nc2c(Cl)c(CN)nc3ccc(-c4ccc(C#N)nc4)cc23)c1 [Example 43, 5-(2-(aminomethyl)-3-chloro-4-((2,5-dimethylphenyl)amino)quinolin-6-yl)picolinonitrile] | 1 to 10 |
| COc1nc2ccc(-c3cnc(C(C)(C)O)nc3)cc2c(Nc2cc(C)ccc2C)c1C [Example 180, 2-(5-(4-(2,5-dimethylphenylamino)-2-methoxy-3-methylquinolin-6-yl)pyrimidin-2-yl)propan-2-ol] | 10 to 25 |
| CC(C)(O)c1ncc(-c2ccc3ncc(Cl)c(NC(c4ccccc4F)C(C)(C)F)c3c2)cn1 (racemic) [Example 229, 2-(5-(3-chloro-4-((2-fluoro-1-(2-fluorophenyl)-2-methylpropyl)amino)quinolin-6-yl)pyrimidin-2-yl)propan-2-ol] | 10 to 25 |
| CC(Nc1c(Cl)cnc2cc(F)c(-c3ccc(C(O)CO)cc3)cc12)c1ccccc1F (stereo not drawn) [Example 290, 1-(4-(3-chloro-7-fluoro-4-((1-(2-fluorophenyl)ethyl)amino)quinolin-6-yl)phenyl)ethane-1,2-diol] | < 1 |
| C=Cc1cccc(C(Nc2c(Cl)cnc3cc(F)c(-c4cnc(C(C)(C)O)nc4)nc23)C(F)F)c1 (racemic) [Example 216, 2-(5-(7-chloro-8-((2,2-difluoro-1-(3-vinylphenyl)ethyl)amino)-3-fluoro-1,5-naphthyridin-2-yl)pyrimidin-2-yl) propan-2-ol] | < 1 |
| CC(Nc1c(Cl)cnc2ccc(-c3ccc(C(C)(C)O)cc3)cc12)c1ccco1 (racemic) [Example 192, 2-(4-(3-chloro-4-((1-(furan-2-yl)ethyl)amino)quinolin-6-yl)phenyl)propan-2-ol] | < 1 |
| CC(C)(O)c1ncc(-c2ccc3ncc(Cl)c(NC(CC(F)F)c4ccccc4F)c3c2)cn1 (racemic) [Example 168, 2-(5-(3-chloro-4-((3,3-difluoro-1-(2-fluorophenyl)propyl)amino)quinolin-6-yl)pyrimidin-2-yl)propan-2-ol] | < 1 |
| CC(Nc1c(Cl)cnc2ccc(-c3ccc(C(C)(C)O)cc3)cc12)c1ccnn1C (racemic) [Example 195, 2-(4-(3-chloro-4-((1-(1-methyl-1H-pyrazol-5-yl)ethyl)amino)quinolin-6-yl)phenyl)propan-2-ol] | 10 to 25 |
| Cc1nc2c(F)cc(-c3cnc(C(C)(C)O)nc3)cc2c(NC(C)c2ccc(F)cc2)c1Cl (racemic) [Example 301, 2-(5-(3-chloro-8-fluoro-4-((1-(4-fluorophenyl)ethyl)amino)-2-methylquinolin-6-yl)pyrimidin-2-yl)propan-2-ol] | 10 to 25 |
| CC(Nc1c(Cl)cnc2cc(F)c(-c3cnc(C(C)(O)CO)nc3)cc12)c1ccccc1F (stereo not drawn) [Example 259, 2-(5-(3-chloro-7-fluoro-4-((1-(2-fluorophenyl)ethyl)amino)quinolin-6-yl)pyrimidin-2-yl)propane-1,2-diol] | 10 to 25 |
| Cc1nc2ccc(-c3cnc(C(C)(C)O)nc3)cc2c(N[C@H](C)c2cc(C(N)=O)ccc2F)c1C [Example 315, (R)-4-fluoro-3-(1-((6-(2-(2-hydroxypropan-2-yl)pyrimidin-5-yl)-2,3-dimethylquinolin-4-yl)amino)ethyl)benzamide] | 10 to 25 |
| C[C@@H](Nc1c(Cl)cnc2ccc(-c3cnc(N4CCN(CC(=O)NS(C)(=O)=O)CC4)nc3)cc12)c1ccccc1F [Example 91, (R)-2-(4-(5-(3-chloro-4-((1-(2-fluorophenyl)ethyl)amino)quinolin-6-yl)pyrimidin-2-yl)piperazin-1-yl)-N-(methylsulfonyl)acetamide] | < 1 |
| CC(Nc1c(Cl)cnc2ccc(-c3ccc(C(C)(C)O)cc3)cc12)c1ccncn1 (racemic) [Example 173, 2-(4-(3-chloro-4-((1-(pyrimidin-4-yl)ethyl)amino)quinolin-6-yl)phenyl)propan-2-ol] | 1 to 10 |
| Cc1nc2ccc(-c3cnc(N4CCN(CC(=O)O)CC4)nc3)cc2c(NC(C)c2ccccc2F)c1Cl (racemic) [Example 309, 2-(4-(5-(3-chloro-4-((1-(2-fluorophenyl)ethyl)amino)-2-methylquinolin-6-yl)pyrimidin-2-yl)piperazin-1-yl)acetic acid] | < 1 |
| CNC(=O)c1nc2ccc(-c3ccc(C#N)nc3)cc2c(Nc2cc(C)ccc2C)c1Cl [Example 33, 3-chloro-6-(6-cyanopyridin-3-yl)-4-((2,5-dimethylphenyl)amino)-N-methylquinoline-2-carboxamide] | 1 to 10 |
| Cc1nc2ccc(-c3cnc(C(C)(C)O)nc3)cc2c(NC(C)c2cc(F)ccc2F)c1Cl (racemic) [Example 317, 2-(5-(3-chloro-4-((1-(2,5-difluorophenyl)ethyl)amino)-2-methylquinolin-6-yl)pyrimidin-2-yl)propan-2-ol] | < 1 |
